Reference: ChEMBL document CHEMBL3044736, “Synthesis, characterization, solvatochromic properties, and antimicrobial evaluation of 5-acetyl-2-thioxo-dihydro-pyrimidine-4,6-dione-based chalcones” (2013)
Converted amounts (≈) assume the structure as drawn.

Tests used:
Type in all cases: functional
Penicillium [1] = assay: Antimicrobial activity against Penicillium wild strain assessed as diameter of growth inhibition zone at 250 ug/ml after 48-96 hr by agar cup diffusion method; details: read-out: DIZ
Penicillium [2] = assay: Antimicrobial activity against Penicillium wild strain assessed as diameter of growth inhibition zone at 100 ug/ml after 48-96 hr by agar cup diffusion method; details: read-out: DIZ
Trichophyton rubrum [3] = assay: Antimicrobial activity against Trichophyton rubrum MTCC 296 assessed as diameter of growth inhibition zone at 100 ug/ml after 48-96 hr by agar cup diffusion method; details: read-out: DIZ
Aspergillus clavatus [4] = assay: Antimicrobial activity against Aspergillus clavatus MTCC 1323 assessed as diameter of growth inhibition zone at 100 ug/ml after 48-96 hr by agar cup diffusion method; details: read-out: DIZ
Candida albicans [5] = assay: Antimicrobial activity against Candida albicans MTCC 227 assessed as diameter of growth inhibition zone at 100 ug/ml after 48-96 hr by agar cup diffusion method; details: read-out: DIZ
Penicillium [6] = assay: Antimicrobial activity against Penicillium wild strain assessed as diameter of growth inhibition zone at 50 ug/ml after 48-96 hr by agar cup diffusion method; details: read-out: DIZ
Trichophyton rubrum [7] = assay: Antimicrobial activity against Trichophyton rubrum MTCC 296 assessed as diameter of growth inhibition zone at 50 ug/ml after 48-96 hr by agar cup diffusion method; details: read-out: DIZ
Aspergillus clavatus [8] = assay: Antimicrobial activity against Aspergillus clavatus MTCC 1323 assessed as diameter of growth inhibition zone at 50 ug/ml after 48-96 hr by agar cup diffusion method; details: read-out: DIZ
Candida albicans [9] = assay: Antimicrobial activity against Candida albicans MTCC 227 assessed as diameter of growth inhibition zone at 50 ug/ml after 48-96 hr by agar cup diffusion method; details: read-out: DIZ
Penicillium [10] = assay: Antimicrobial activity against Penicillium wild strain assessed as diameter of growth inhibition zone at 25 ug/ml after 48-96 hr by agar cup diffusion method; details: read-out: DIZ
Trichophyton rubrum [11] = assay: Antimicrobial activity against Trichophyton rubrum MTCC 296 assessed as diameter of growth inhibition zone at 25 ug/ml after 48-96 hr by agar cup diffusion method; details: read-out: DIZ
Aspergillus clavatus [12] = assay: Antimicrobial activity against Aspergillus clavatus MTCC 1323 assessed as diameter of growth inhibition zone at 25 ug/ml after 48-96 hr by agar cup diffusion method; details: read-out: DIZ
Candida albicans [13] = assay: Antimicrobial activity against Candida albicans MTCC 227 assessed as diameter of growth inhibition zone at 25 ug/ml after 48-96 hr by agar cup diffusion method; details: read-out: DIZ
Penicillium [14] = assay: Antimicrobial activity against Penicillium wild strain by agar cup diffusion method
Aspergillus clavatus [15] = assay: Antimicrobial activity against Aspergillus clavatus MTCC 1323 by agar cup diffusion method
Pseudomonas aeruginosa [16] = assay: Antimicrobial activity against Pseudomonas aeruginosa MTCC 1688 assessed as diameter of growth inhibition zone at 25 ug/ml after 18-24 hr by agar cup diffusion method; details: read-out: DIZ
Escherichia coli [17] = assay: Antimicrobial activity against Escherichia coli MTCC 443 assessed as diameter of growth inhibition zone at 25 ug/ml after 18-24 hr by agar cup diffusion method; details: read-out: DIZ
Staphylococcus aureus [18] = assay: Antimicrobial activity against Staphylococcus aureus MTCC 96 assessed as diameter of growth inhibition zone at 25 ug/ml after 18-24 hr by agar cup diffusion method; details: read-out: DIZ
Streptococcus pyogenes [19] = assay: Antimicrobial activity against Streptococcus pyogenes MTCC 442 assessed as diameter of growth inhibition zone at 25 ug/ml after 18-24 hr by agar cup diffusion method; details: read-out: DIZ
Klebsiella pneumoniae [20] = assay: Antimicrobial activity against Klebsiella pneumoniae MTCC 109 by agar cup diffusion method
Escherichia coli [21] = assay: Antimicrobial activity against Escherichia coli MTCC 443 by agar cup diffusion method
Pseudomonas aeruginosa [22] = assay: Antimicrobial activity against Pseudomonas aeruginosa MTCC 1688 by agar cup diffusion method
Staphylococcus aureus [23] = assay: Antimicrobial activity against Staphylococcus aureus MTCC 96 by agar cup diffusion method
Streptococcus pyogenes [24] = assay: Antimicrobial activity against Streptococcus pyogenes MTCC 442 by agar cup diffusion method
Trichophyton rubrum [25] = assay: Antimicrobial activity against Trichophyton rubrum MTCC 296 by agar cup diffusion method
Candida albicans [26] = assay: Antimicrobial activity against Candida albicans MTCC 227 by agar cup diffusion method
Klebsiella pneumoniae [27] = assay: Antimicrobial activity against Klebsiella pneumoniae MTCC 109 assessed as diameter of growth inhibition zone at 250 ug/ml after 18-24 hr by agar cup diffusion method; details: read-out: DIZ
Pseudomonas aeruginosa [28] = assay: Antimicrobial activity against Pseudomonas aeruginosa MTCC 1688 assessed as diameter of growth inhibition zone at 250 ug/ml after 18-24 hr by agar cup diffusion method; details: read-out: DIZ
Escherichia coli [29] = assay: Antimicrobial activity against Escherichia coli MTCC 443 assessed as diameter of growth inhibition zone at 250 ug/ml after 18-24 hr by agar cup diffusion method; details: read-out: DIZ
Staphylococcus aureus [30] = assay: Antimicrobial activity against Staphylococcus aureus MTCC 96 assessed as diameter of growth inhibition zone at 250 ug/ml after 18-24 hr by agar cup diffusion method; details: read-out: DIZ
Streptococcus pyogenes [31] = assay: Antimicrobial activity against Streptococcus pyogenes MTCC 442 assessed as diameter of growth inhibition zone at 250 ug/ml after 18-24 hr by agar cup diffusion method; details: read-out: DIZ
Klebsiella pneumoniae [32] = assay: Antimicrobial activity against Klebsiella pneumoniae MTCC 109 assessed as diameter of growth inhibition zone at 100 ug/ml after 18-24 hr by agar cup diffusion method; details: read-out: DIZ
Pseudomonas aeruginosa [33] = assay: Antimicrobial activity against Pseudomonas aeruginosa MTCC 1688 assessed as diameter of growth inhibition zone at 100 ug/ml after 18-24 hr by agar cup diffusion method; details: read-out: DIZ
Escherichia coli [34] = assay: Antimicrobial activity against Escherichia coli MTCC 443 assessed as diameter of growth inhibition zone at 100 ug/ml after 18-24 hr by agar cup diffusion method; details: read-out: DIZ
Staphylococcus aureus [35] = assay: Antimicrobial activity against Staphylococcus aureus MTCC 96 assessed as diameter of growth inhibition zone at 100 ug/ml after 18-24 hr by agar cup diffusion method; details: read-out: DIZ
Streptococcus pyogenes [36] = assay: Antimicrobial activity against Streptococcus pyogenes MTCC 442 assessed as diameter of growth inhibition zone at 100 ug/ml after 18-24 hr by agar cup diffusion method; details: read-out: DIZ
Klebsiella pneumoniae [37] = assay: Antimicrobial activity against Klebsiella pneumoniae MTCC 109 assessed as diameter of growth inhibition zone at 50 ug/ml after 18-24 hr by agar cup diffusion method; details: read-out: DIZ
Pseudomonas aeruginosa [38] = assay: Antimicrobial activity against Pseudomonas aeruginosa MTCC 1688 assessed as diameter of growth inhibition zone at 50 ug/ml after 18-24 hr by agar cup diffusion method; details: read-out: DIZ
Escherichia coli [39] = assay: Antimicrobial activity against Escherichia coli MTCC 443 assessed as diameter of growth inhibition zone at 50 ug/ml after 18-24 hr by agar cup diffusion method; details: read-out: DIZ
Staphylococcus aureus [40] = assay: Antimicrobial activity against Staphylococcus aureus MTCC 96 assessed as diameter of growth inhibition zone at 50 ug/ml after 18-24 hr by agar cup diffusion method; details: read-out: DIZ
Streptococcus pyogenes [41] = assay: Antimicrobial activity against Streptococcus pyogenes MTCC 442 assessed as diameter of growth inhibition zone at 50 ug/ml after 18-24 hr by agar cup diffusion method; details: read-out: DIZ
Klebsiella pneumoniae [42] = assay: Antimicrobial activity against Klebsiella pneumoniae MTCC 109 assessed as diameter of growth inhibition zone at 25 ug/ml after 18-24 hr by agar cup diffusion method; details: read-out: DIZ
Trichophyton rubrum [43] = assay: Antimicrobial activity against Trichophyton rubrum MTCC 296 assessed as diameter of growth inhibition zone at 250 ug/ml after 48-96 hr by agar cup diffusion method; details: read-out: DIZ
Aspergillus clavatus [44] = assay: Antimicrobial activity against Aspergillus clavatus MTCC 1323 assessed as diameter of growth inhibition zone at 250 ug/ml after 48-96 hr by agar cup diffusion method; details: read-out: DIZ
Candida albicans [45] = assay: Antimicrobial activity against Candida albicans MTCC 227 assessed as diameter of growth inhibition zone at 250 ug/ml after 48-96 hr by agar cup diffusion method; details: read-out: DIZ

## O=C(/C=C/c1ccc2ccccc2c1)C1C(=O)NC(=S)NC1=O
Penicillium [1]
  zone of inhibition at 250 µg/mL: 23 mm
Penicillium [2]
  zone of inhibition at 100 µg/mL: 21 mm
Trichophyton rubrum [3]
  zone of inhibition at 100 µg/mL: 22 mm
Aspergillus clavatus [4]
  zone of inhibition at 100 µg/mL: 25 mm
Candida albicans [5]
  zone of inhibition at 100 µg/mL: 24 mm
Penicillium [6]
  zone of inhibition at 50 µg/mL: 18 mm
Trichophyton rubrum [7]
  zone of inhibition at 50 µg/mL: 20 mm
Aspergillus clavatus [8]
  zone of inhibition at 50 µg/mL: 20 mm
Candida albicans [9]
  zone of inhibition at 50 µg/mL: 22 mm
Penicillium [10]
  zone of inhibition at 25 µg/mL: 18 mm
Trichophyton rubrum [11]
  zone of inhibition at 25 µg/mL: 18 mm
Aspergillus clavatus [12]
  zone of inhibition at 25 µg/mL: 18 mm
Candida albicans [13]
  zone of inhibition at 25 µg/mL: 22 mm
Penicillium [14]
  MFC: 1000 µg/mL (≈ 3080 µM)
  MIC: 1000 µg/mL (≈ 3080 µM)
Aspergillus clavatus [15]
  MFC: > 1000 µg/mL
  MIC: > 1000 µg/mL
Pseudomonas aeruginosa [16]
  zone of inhibition at 25 µg/mL: 10 mm
Escherichia coli [17]
  zone of inhibition at 25 µg/mL: 14 mm
Staphylococcus aureus [18]
  zone of inhibition at 25 µg/mL: 10 mm
Streptococcus pyogenes [19]
  zone of inhibition at 25 µg/mL: 14 mm
Klebsiella pneumoniae [20]
  MBC: 200 µg/mL (≈ 617 µM)
  MIC: 125 µg/mL (≈ 385 µM)
Escherichia coli [21]
  MBC: 500 µg/mL (≈ 1540 µM)
  MIC: 250 µg/mL (≈ 771 µM)
Pseudomonas aeruginosa [22]
  MBC: 125 µg/mL (≈ 385 µM)
  MIC: 100 µg/mL (≈ 308 µM)
Staphylococcus aureus [23]
  MBC: 250 µg/mL (≈ 771 µM)
  MIC: 200 µg/mL (≈ 617 µM)
Streptococcus pyogenes [24]
  MBC: 250 µg/mL (≈ 771 µM)
  MIC: 250 µg/mL (≈ 771 µM)
Trichophyton rubrum [25]
  MFC: 1000 µg/mL (≈ 3080 µM)
  MIC: 1000 µg/mL (≈ 3080 µM)
Candida albicans [26]
  MFC: > 1000 µg/mL
  MIC: > 1000 µg/mL
Klebsiella pneumoniae [27]
  zone of inhibition at 250 µg/mL: 20 mm
Pseudomonas aeruginosa [28]
  zone of inhibition at 250 µg/mL: 19 mm
Escherichia coli [29]
  zone of inhibition at 250 µg/mL: 21 mm
Staphylococcus aureus [30]
  zone of inhibition at 250 µg/mL: 19 mm
Streptococcus pyogenes [31]
  zone of inhibition at 250 µg/mL: 21 mm
Klebsiella pneumoniae [32]
  zone of inhibition at 100 µg/mL: 18 mm
Pseudomonas aeruginosa [33]
  zone of inhibition at 100 µg/mL: 15 mm
Escherichia coli [34]
  zone of inhibition at 100 µg/mL: 18 mm
Staphylococcus aureus [35]
  zone of inhibition at 100 µg/mL: 15 mm
Streptococcus pyogenes [36]
  zone of inhibition at 100 µg/mL: 18 mm
Klebsiella pneumoniae [37]
  zone of inhibition at 50 µg/mL: 15 mm
Pseudomonas aeruginosa [38]
  zone of inhibition at 50 µg/mL: 12 mm
Escherichia coli [39]
  zone of inhibition at 50 µg/mL: 16 mm
Staphylococcus aureus [40]
  zone of inhibition at 50 µg/mL: 12 mm
Streptococcus pyogenes [41]
  zone of inhibition at 50 µg/mL: 16 mm
Klebsiella pneumoniae [42]
  zone of inhibition at 25 µg/mL: 14 mm
Trichophyton rubrum [43]
  zone of inhibition at 250 µg/mL: 23 mm
Aspergillus clavatus [44]
  zone of inhibition at 250 µg/mL: 25 mm
Candida albicans [45]
  zone of inhibition at 250 µg/mL: 25 mm
